Where “and” joins values, the source holds several entries; their conditions need not be identical. Equal entries are not always repeated. Where a SMILES comes first, the peptide text is derived from it. Bridges are numbered along the chain shown (N, C = ends). [ ]: non-standard residue; d: D form. Orn = NCCC[C@H](N)C(=O)O; Mpa = O=C(O)CCS
Tests used:
[1] = tested on: preterm birth; details: prior experiments, 90% in control; cited from earlier work
[2] = Indomethacin levels in uterus, placenta and fetus after IND or LIP-IND (Example 1); format: in vivo, pregnant mouse; details: four hours following administration, mean ± sem; for concentration at 4 h: female, mouse
[3] = tested on: LPS-induced preterm birth; assay: LPS-induced preterm birth in vivo; set-up: species or system pregnant CD1 mice; details: IND 1 mg/kg daily tail vein
Description: Preterm birth in vivo. The established in vivo preterm pregnant mouse model was used to test the ability of LIP-IND-ORA to prevent preterm birth. LPS is a commonly used model to induce labor in murine models. On GD 16, timed-pregnant CD1 mice were administered lipopolysaccharide (LPS, Sigma, USA) (25 μg/kg) via intraperitoneal injection. […] Since the LIP-IND-ORA solution color was visibly pink and due to limited resources to create a placebo, the randomization was not blinded. Each day after the LPS administration, the preterm birth rate was determined as the number of pregnant mice spontaneously delivering prior to GD18. Animals were housed in single cages and were monitored by either direct observation or by video camera for the duration of the treatment period to confirm timing of delivery. The rate of preterm birth was expressed as percent and length of pregnancy after LPS administration was expressed in hours. Results were reported as median±sem.

[4] = tested on: uterus isolated from pregnant mice; assay: Uterine contractility ex vivo, pregnant mouse; details: absence of oxytocin, 40 min incubation, IND 10-5 mol/L, n=6, mean±SEM
Description: (§1) Uterine contractility ex vivo. An established ex vivo pregnant mouse or human models of uterine contractility was used to measure the ability of LIP-IND-ORA to inhibit uterine contractions. For mice, on GD19, timed-pregnant animals (N=6) underwent CO2 inhalation euthanasia, the maternal uteri were excised and placed into Krebs physiological solution. In the case of human tissue, strips from uterine biopsies obtained at cesarean section from non-laboring, term, healthy women were used. Uterine ring segments, 4 mm in width, were cut, and the fetuses and placentas were gently removed. […]
(§2) Changes in isometric tension were recorded with isometric force transducers (Harvard Apparatus, South Natik, Mass.) connected and stored to an online computer with data acquisition software (WINDAQ-200; DATAQ). The data was acquired and analyzed using Windaq data acquisition system (Dataq Instruments Inc, Akron, Ohio). Spontaneous contractile activity for each uterine ring was analyzed as an integral activity over 40 min before (basal activity) and after application of each study drug. […] OXY induced contractile response was expressed as an integral activity over 20 min of each OXY dose and the baseline uterine contractility54,55,56. […] Data was expressed as mean±SEM.

[5] = tested on: Prostaglandin E2 (PGE2); assay: PGE2 levels in uterine tissue after administration (Example 1); format: in vivo, pregnant mouse; details: four hours following administration
[6] = tested on: prostaglandin E2 (PGE2); assay: PGE2 in uterine tissue incubated ex vivo, ELISA; set-up: species or system mouse; details: 40 min incubation, mean±SEM
Description: Another set of pregnant CD1 mice at GD 19 (n=5) was used to evaluate uterus PGE2 levels. […] PGE2 levels in each sample were then determined based on the instructions in the ELISA kit (ADI-901-001, Enzo Life Science, New York, USA). The concentration of PGE2 were expressed as pg/mL and reported as the mean±SEM.

[7] = tested on: strips from uterine biopsies obtained at cesarean section; assay: Human myometrial contractility study (organ bath); details: highest concentration of 10^−6
Description: as §1, §2

[8] = IND concentrations in maternal uterus and fetus by LC-MS/MS; format: in vivo, pregnant CD1 mice; details: female, CD1, mouse, intravenous, 1 mg/kg
Description: Biodistribution study in vivo. […] The in vivo doses were maintained across the study. After 4 h, pregnant mice were sacrificed by CO2 inhalation, followed by laparotomy to retrieve maternal liver, uteri, placentas and fetuses. The onset of action of LIP-IND-ORA is unknown when administered intravenously. […] Based on these prior studies, 4 h was chosen as the period of exposure.
Uterine and fetal tissues were homogenized in 1 mL of ice-cold methanol/water (7:3 v/v). Phenacetin (final concentration 20 ng/mL) was added to each sample before centrifugation at 15,000 rpm for 10 min. Supernatant was dried under nitrogen and reconstituted in 0.1% formic acid aqueous solution followed by protein precipitation with acetonitrile (1:2). Samples were centrifuged again, supernatant was transferred to vial and 10 μL was injected to Shimadzu triple quad 8040 MS connected to LC system. […] Method parameters were: LOD=3.9 ng/mL (accuracy 76%, S/N>3); LOQ=15.6 ng/mL (accuracy 85%; CV<10%; S/N>10) with correlation coefficient for linear regression R2=0.992.

[9] = ORA levels in maternal organs by LC-MS/MS; format: in vivo, pregnant mice; details: after LIP-IND-ORA
Description: To enable faster clinical translation of the proposed approach, a clinically used^33 oxytocin receptor antagonist (ORA, or atosiban) was used as the targeting element. […] Thus, the goal of using ORA as a safe targeting moiety for pregnant women was successfully in delivering indomethacin to the uterus directly. The principles of nanomedicine have been applied to optimize tocolytics for the treatment of preterm labor, and the novel drug delivery system can provide a path for a new paradigm-shifting direction to advance the field of obstetrics.

SMILES | rate of preterm birth [1] | concentration at 4 h ([2]; fetus) | concentration at 4 h ([2]; placenta) | concentration at 4 h ([2]; uterus) | Indomethacin level normalized per weight, fetus [2] | length of pregnancy after LPS administration [3] | rate of LPS-induced preterm birth ([3]; delivery prior to GD18) | percent inhibition of uterine contractions [4] | PGE2 levels in the uterus [5] | PGE2 levels in the uterus exposed ex vivo [6] | percent uterine contractions [7] | concentration at 4 h ([8]; fetus) | concentration at 4 h ([8]; uterus) | ORA levels in the maternal organs [9]
COc1ccc2c(c1)c(CC(=O)O)c(C)n2C(=O)c1ccc(Cl)cc1 [IND, indomethacin] | 30% | 81.3 ± 24.7 ng/g | 650 ± 78.4 ng/g | 237 ± 21.6 ng/g | 81.3 ± 24.7 ng/g | 30.0 ± 4.9 h | 54.5% | 34.3±6.6% and 34.3±5.9% | 493.3 ± 89.0 pg/mL | 2,587.4±676.5 pg/mL | 67.2±8.4% | 245 ± 61.7 ng/g | 965 ± 312 ng/g | 
CCOc1ccc(C[C@H]2NC(=O)CCSSC[C@@H](C(=O)N3CCC[C@H]3C(=O)N[C@@H](CCCN)C(=O)NCC(N)=O)NC(=O)[C@H](CC(N)=O)NC(=O)[C@H]([C@@H](C)O)NC(=O)[C@H]([C@@H](C)CC)NC2=O)cc1 [ORA, atosiban] ([Mpa][dY](Et)ITNCP[Orn]G-NH2; disulfide 1-6) |  |  |  |  |  |  |  |  |  |  |  |  |  | not detectable

Reference: patent US10736880B2, “Therapeutics for preterm labor management” (THE BOARD OF REGENTS OF THE UNIVERSITY OF TEXAS SYSTEM, priority 2015, dated 2020)
